# Patent US20250195475A1, “CDK2 INHIBITOR AND PREPARATION METHOD AND USE THEREOF” (INVENTISBIO CO., LTD., priority 2022, published 2025)
# Target: CDK2/CyclinE1 (Homo sapiens (Human), UniProt P24941)
# Assay: CDK2 kinase assay (TR-FRET)
# Type: biochemical
# Conditions: CDK2/CyclinE1 0.5 nM, ATP 50 μM
# Description: The purpose of these assays is to evaluate the inhibition of small molecule inhibitors by using TR-FRET assay.
# Compound Preparation. Dissslove the compounds into DMSO solution to make 10 mM DMSO stock. Serially dilute the stock solution from highest concentration down to lowest in DMSO to make the compound stock plate (100× stock plates). To make 5× compound intermediate plate, add 38 μL of assay buffer (50 mM HEPES, pH 7.5, 0.05 mg/mL BSA, 10 mM MgCl2, 1 mM EGTA, 0.01% Tween-20, 2 mM DTT) into each well of the V-bottom plate; then transfer 2 μL of the stock compound solution of each concentration from the compound stock plate (100× stock), and mix well.
# Enzyme reaction. Transfer 2 μL compound from 5× intermediate plate into assay plate, then add 4 μL/well 2.5× Enzyme mix to assay plate, incubation for 10 min at room temperature. For positive control wells, add 4 μL/well assay buffer instead of Enzyme mix. Then add 4 μL/well 2.5× Substrate mix to assay plate, and incubation at 25° C. for 30 min at room temperature. After reaction, 10 μL 2× Detection mix (final 15 mM EDTA, 1× LANCE Detection Buffer, 0.5 nM Detection antibody) was added and incubated for 1 h prior to detection with excitation and emission at 320 and 665 nm (Tecan Spark® TR-FRET mode Tecan).
# Inhibition rate (IR) of the tested compounds was determined by the following formula: IR (%)=(average High control−compound well)/(average High control−average Low control)*100%. Fit the compound IC50 from non-linear regression equation: Y=Bottom+(Top−Bottom)/(1+10^((Log IC50−X)*HillSlope)). X: Log of cpd concentration; Y: Inhibition rate (TR); Top and Bottom: Plateaus in same units as Y, log IC50: same log units as X; HillSlope: Slope factor or Hill slope.
smiles,measurement,value
COC[C@H]1C[C@@H]1C(=O)Nc1cc([C@H]2CC[C@@H](OC(=O)NC34CC(F)(C3)C4)C2)[nH]n1 [Compound 125],IC50,1.3 nM
CC(C)NC(=O)O[C@@H]1CC[C@H](c2cc(NC(=O)[C@@H]3C[C@@H](C)N(S(C)(=O)=O)C3)n[nH]2)C1 [Compound 127],IC50,3.6 nM
CC(C)NC(=O)O[C@@H]1COC(c2cc(NC(=O)Cc3ccc(OCCN4CCCC4)cc3)n[nH]2)C1 (stereo partly shown) [Compound 128],IC50,14.6 nM
Cc1occc1C(=O)Nc1cc([C@H]2C[C@@H](OC(=O)NC(C)C)CO2)[nH]n1 [Compound 129],IC50,11.8 nM
CC(C)NC(=O)O[C@@H]1CO[C@H](c2cc(NC(=O)[C@@H]3CCN(S(=O)(=O)C4CC4)C3)n[nH]2)C1 [Compound 132],IC50,7.2 nM
Cc1occc1C(=O)Nc1cc([C@@H]2C[C@H](OC(=O)NC(C)C)CO2)[nH]n1 [Compound 133],IC50,50.1 nM
CC(C)NC(=O)O[C@H]1CO[C@@H](c2cc(NC(=O)Cc3ccccc3S(C)(=O)=O)n[nH]2)C1 [Compound 134],IC50,2.2 nM
CC(C)NC(=O)O[C@@H]1CO[C@H](c2cc(NC(=O)Cc3ccccc3S(C)(=O)=O)n[nH]2)C1 [Compound 135],IC50,13.5 nM
CC(C)NC(=O)O[C@@H]1CC[C@H](C2=CC(NC(=O)[C@H]3C[C@@H]3[C@@H](C)O)=NC2)C1 [Compound 137],IC50,5.3 nM
Cn1nccc1C(=O)Nc1cc([C@H]2C[C@@H](OC(=O)NC3(C)CCC3)CO2)[nH]n1 [Compound 138],IC50,1 nM
CC1(NC(=O)O[C@@H]2CC[C@H](c3cc(NC(=O)[C@@H]4CCN(S(=O)(=O)C5CC5)C4)n[nH]3)C2)CCC1 [Compound 139],IC50,0.7 nM
CC1(NC(=O)O[C@@H]2CC[C@H](c3cc(NC(=O)[C@@H]4CCN(S(=O)(=O)C5CC5)C4)n[nH]3)C2)CC1 [Compound 140],IC50,0.7 nM
C#C[C@H]1C[C@@H]1C(=O)Nc1cc([C@H]2CC[C@@H](OC(=O)NC3(C)CC3)C2)[nH]n1 [Compound 141],IC50,0.5 nM
COC[C@H]1C[C@@H]1C(=O)Nc1cc([C@H]2CC[C@@H](OC(=O)NC34CC(C(F)F)(C3)C4)C2)[nH]n1 [Compound 142],IC50,1.6 nM
C#C[C@H]1C[C@@H]1C(=O)Nc1cc([C@@H]2CC[C@H](OC(=O)NC(C)C)C2)[nH]n1 [Compound 145],IC50,0.9 nM
CC(C)NC(=O)O[C@@H]1CC[C@H](c2cc(NC(=O)C3CC3OCC(F)F)n[nH]2)C1 (stereo partly shown) [Compound 147],IC50,4.8 nM
C#C[C@H]1C[C@@H]1C(=O)Nc1cc([C@H]2C[C@@H](OC(=O)N[C@@H](C)CC)CO2)[nH]n1 [Compound 155],IC50,4.5 nM
C#C[C@H]1C[C@@H]1C(=O)Nc1cc([C@@H]2C[C@H](OC(=O)N[C@@H](C)CC)CO2)[nH]n1 [Compound 156],IC50,6 nM
C#C[C@H]1C[C@@H]1C(=O)Nc1cc([C@@H]2C[C@H](OC(=O)NC3(C)CC3)CO2)[nH]n1 [Compound 157],IC50,2.9 nM
C#C[C@H]1C[C@@H]1C(=O)Nc1cc([C@H]2C[C@@H](OC(=O)NC3(C)CCC3)CO2)[nH]n1 [Compound 158],IC50,1.1 nM
Cn1nccc1C(=O)Nc1cc([C@H]2C[C@@H](OC(=O)NC34CC(F)(C3)C4)CO2)[nH]n1 [Compound 159],IC50,1.6 nM
Cn1nccc1C(=O)Nc1cc([C@@H]2C[C@H](OC(=O)NC34CC(F)(C3)C4)CO2)[nH]n1 [Compound 160],IC50,5.3 nM
CC(C)NC(=O)O[C@@H]1CC[C@H](c2cc(NC(=O)[C@H]3C[C@@H]3C#CC(F)F)n[nH]2)C1 [Compound 161],IC50,1 nM
Cc1c(C2CC2C(=O)Nc2cc([C@H]3CC[C@@H](OC(=O)NC(C)C)C3)[nH]n2)cnn1C (stereo partly shown) [Compound 162],IC50,109 nM
C#C[C@H]1C[C@@H]1C(=O)Nc1cc([C@H]2C[C@@H](OC(=O)NC(C)C)CO2)[nH]n1 [Compound 164],IC50,1.5 nM
C#C[C@H]1C[C@@H]1C(=O)Nc1cc([C@@H]2C[C@H](OC(=O)NC(C)C)CO2)[nH]n1 [Compound 165],IC50,4.7 nM
C#C[C@H]1C[C@@H]1C(=O)Nc1cc([C@H]2C[C@@H](OC(=O)NC(C)(C)C)CO2)[nH]n1 [Compound 166],IC50,0.9 nM
C#C[C@H]1C[C@@H]1C(=O)Nc1cc([C@@H]2C[C@H](OC(=O)NC(C)(C)C)CO2)[nH]n1 [Compound 167],IC50,1.4 nM
C#C[C@H]1C[C@@H]1C(=O)Nc1cc([C@H]2C[C@@H](OC(=O)NC(C)(C)CC)CO2)[nH]n1 [Compound 168],IC50,0.6 nM
C#C[C@H]1C[C@@H]1C(=O)Nc1cc([C@@H]2C[C@H](OC(=O)NC(C)(C)CC)CO2)[nH]n1 [Compound 169],IC50,1.9 nM
C#C[C@H]1C[C@@H]1C(=O)Nc1cc([C@H]2C[C@@H](OC(=O)NC3(C)CC3)CO2)[nH]n1 [Compound 170],IC50,0.8 nM
C#C[C@H]1C[C@@H]1C(=O)Nc1cc([C@@H]2C[C@H](OC(=O)NC3(C)CCC3)CO2)[nH]n1 [Compound 171],IC50,1.3 nM
CC(C)NC(=O)O[C@@H]1CC[C@H](c2cc(NC(=O)C3CN(S(=O)(=O)C4CC4)CC3C)n[nH]2)C1 (stereo partly shown) [Compound 172],IC50,1.2 nM
CC(C)NC(=O)O[C@@H]1CC[C@H](c2cc(NC(=O)C3CC34CCOC4)n[nH]2)C1 (stereo partly shown) [Compound 174],IC50,61.1 nM
CC(C)NC(=O)O[C@@H]1CC[C@H](c2cc(NC(=O)C3CC34CCOC4)n[nH]2)C1 (stereo partly shown) [Compound 175],IC50,174 nM
CC(C)NC(=O)O[C@@H]1CC[C@H](c2cc(NC(=O)C3CC34CCOC4)n[nH]2)C1 (stereo partly shown) [Compound 176],IC50,33 nM
CC#C[C@H]1C[C@@H]1C(=O)Nc1cc([C@H]2CC[C@@H](OC(=O)NC(C)C)C2)[nH]n1 [Compound 177],IC50,1 nM
CCC1(NC(=O)O[C@@H]2CO[C@H](c3cc(NC(=O)c4ccnn4C)n[nH]3)C2)CCC1 [Compound 178],IC50,1.4 nM
CC(C)NC(=O)O[C@@H]1CC[C@H](c2cc(NC(=O)[C@@H]3C[C@@H](C(C)C)N(S(C)(=O)=O)C3)n[nH]2)C1 [Compound 179],IC50,12.6 nM
C#C[C@H]1C[C@@H]1C(=O)Nc1cc([C@H]2C[C@@H](OC(=O)NC3(C)COC3)CO2)[nH]n1 [Compound 182],IC50,4 nM
CCC1(NC(=O)O[C@H]2CO[C@@H](c3cc(NC(=O)c4ccnn4C)n[nH]3)C2)CCC1 [Compound 183],IC50,0.5 nM
COC[C@H]1C[C@@H]1C(=O)Nc1cc([C@@H]2CC[C@H](OC(=O)NC3(C)CC3)C2)[nH]n1 [Compound 184],IC50,0.5 nM
CCC(C)(C)NC(=O)O[C@H]1CO[C@@H](c2cc(NC(=O)c3ccnn3C)n[nH]2)C1 [Compound 190],IC50,0.6 nM
C#C[C@H]1C[C@@H]1C(=O)Nc1cc([C@H]2CC[C@@H](OC(=O)NC34CC(F)(C3)C4)C2)[nH]n1 [Compound 194],IC50,0.7 nM
C#C[C@H]1C[C@@H]1C(=O)Nc1cc([C@@H]2C[C@H](OC(=O)NC3(C)COC3)CO2)[nH]n1 [Compound 197],IC50,15.7 nM
C#CC1(NC(=O)O[C@@H]2CO[C@H](c3cc(NC(=O)c4ccnn4C)n[nH]3)C2)CCC1 [Compound 198],IC50,6.8 nM
COCc1cc(C(=O)Nc2cc([C@H]3CC[C@@H](OC(=O)N[C@H]4C[C@@]5(CCOC5)C4)C3)[nH]n2)n(C)n1 [Compound 201],IC50,4.6 nM
COCc1cc(C(=O)Nc2cc([C@H]3CC[C@@H](OC(=O)N[C@H]4C[C@]5(CCOC5)C4)C3)[nH]n2)n(C)n1 [Compound 202],IC50,3.9 nM
CCC1(NC(=O)O[C@H]2CO[C@@H](c3cc(NC(=O)c4ccnn4C)n[nH]3)C2)CC1 [Compound 203],IC50,0.9 nM
